Assay results taken from paper PMC11750672, “The in vivo metabolic pathway of Deg-AZM and in vitro investigations into the contribution of drug metabolizing enzymes and drug transporters in the drug interactions of Deg-AZM, a clinical-stage new transgelin agonist” (Frontiers in Pharmacology, 2025).

Experiments:
[1] = Exposure profiles of Deg-AZM and metabolites in rat plasma, urine, feces and bile (UPLC-QTOF-MS); assay type: in vivo, rats; details: / = not detected
Experimental: (§1) The plasma samples at 0.167 h, 0.5 h, 3 h and 8 h after administration were obtained from the study of tissue distribution in rats ([Gu et al., 2024]). Urine, feces and bile samples at 0–24 h after administration were obtained from the excretion study of a single gavage administration of 25 mg/kg Deg-AZM in rats ([Gu et al., 2024]).
Plasma samples were precipitated with methanol at a ratio of 1:3. Urine samples were diluted with 50% methanol at a ratio of 1:80. The feces was thoroughly ground and sonicated with a 50% methanol at a ratio of 1 g/10 mL to obtain the homogenate, then the homogenate were precipitated with methanol at a ratio of 1:1. Bile samples were precipitated with 50% methanol at a ratio of 1:1. The above obtained samples were vortexed for 1 min and centrifugated at 4°C, 12,000 rpm for 10 min. Finally, the upper layer was analyzed using the UPLC-QTOF-MS system.
The metabolites of Deg-AZM in the plasma, urine, feces and bile samples were identified by UPLC-QTOF-MS system. Liquid chromatography was performed on an ACQUITY UPLC^TM I-Class UPLC unit with a Waters ACQUITY UPLC HSS T3 (100 × 2.1 mm, 1.8 µm). A gradient program was employed with the mobile phase combining solvent A (0.02% formic acid in 5% acetonitrile) and solvent B (acetonitrile) as follows: 100% A (0–0.5 min), 100%–85% A (0.5–7 min), 85%–5% A (7–9 min), 5% A (9–12 min), 5%–100% A (12–15 min). The flow rate was 0.40 mL/min. The column temperature was maintained at 40°C.
A Waters Q-TOF Xevo G2-XS Spectrometer equipped with ESI source under positive ion mode was utilized to conduct mass spectrometry detection, for which the MS^E mode was set at the mass range of 100–1,000 Da. The cone voltage was 40 V. The desolvation temperature was set at 500°C and source temperature was 100°C. The desolvation gas flow rate was 800 L/h and the cone gas flow rate was 50 L/h. In MS^E centroid mode, the MS data were acquired with the low energy function in the trap collision energy (6 eV), and the tandem mass data were acquired with the high energy function in the ramp trap collision energy (35–45 eV).
The extraction ion chromatogram of plasma samples at 0.167 h, 0.5 h, 3 h and 8 h after administration of Deg-AZM in rats was shown in Figure 2. The extraction ion chromatogram of urine, feces and bile samples collected from 0 to 24 h after oral administration of Deg-AZM in rats was shown in Figure 3. The AUC0-t of Deg-AZM and its metabolites in plasma sample were calculated by trapezoidal rule based on the chromatographic peak area. 21 metabolites were found in rat plasma, with M0 (Deg-AZM) and metabolite M2 (demethylated) being the main exposure forms in rat plasma. M0 and M2 accounted for 61.6% and 23.0% of the total related substances in rat plasma, respectively. The relative proportions of Deg-AZM and its metabolites in urine, feces and bile samples were evaluated by the chromatographic peak area, as shown in Figure 4. The detailed proportion of Deg-AZM and its metabolites could be found in Supplementary Table S1. M0 and 28 metabolites were found in the urine of rats. […] M0 and 42 metabolites were found in the feces of rats. Metabolite M1-2 (monohydroxylation, 18.1%) and metabolite M2 (16.6%) were the main forms of fecal excretion of Deg-AZM in rats after oral administration. M0 and 38 metabolites were found in the bile samples of rats. Metabolite M1-2 (monohydroxylation, 19.2%) and metabolite M2 (16.5%) were the main forms of biliary excretion of Deg-AZM in rats after oral administration.

[2] = Excretion and material balance in rats (urine, feces 0-24 h); assay type: in vivo; details: through the kidneys and urine
Experimental: as §1
The types and proportions of metabolites in the excretion pathway were elucidated in this study. […] Based on the peak area in this study, the total amount of metabolites in urine and feces of rats was 0.589 times and 9.96 times that of the original form of Deg-AZM, respectively. The total amount of Deg-AZM excreted in its original form and various metabolites in urine and feces was 23.7% and 19.8% of the administered dose, respectively, with a material balance coefficient of 43.5%. Deg-AZM was mainly excreted in the form of its original form M0 (cumulative excretion fraction of 14.9%) and metabolite M2 (cumulative excretion fraction of 5.33%) through the kidneys and urine, and in the form of metabolite M1-2 (cumulative excretion fraction of 4.29%) and M2 (cumulative excretion fraction of 3.93%) through the intestines and feces. […] It is necessary to obtain standard samples of the main metabolites for accurate quantification or use isotope tracing techniques to further improve material balance research in the clinical stage.

pooled HLM = assay: HLM phenotyping assay, control group and positive control systems; assay type: in vitro ADME, human; details: 1 μM, HLM 0.5 mg/mL, NADPH, 90 min, control group without inhibitors
Experimental: (§2) Deg-AZM (1 μM) was treated with pooled HLM (0.5 mg/mL) and NADPH (1 mM) for 90 min with or without seven specific inhibitors (10 µM furafylline for CYP1A2, 10 µM ticlopidine for CYP2B6, 5 µM montelukast for CYP2C8, 10 µM sulfaphenazole for CYP2C9, 10 µM ticlopidine for CYP2C19, 2.5 µM quinidine for CYP2D6, 1 µM ketoconazole for CYP3A). Isoform-selective probe substrates, 10 µM phenacetin for CYP1A2, 20 µM bupropion for CYP2B6, 2 µM amodiaquine for CYP2C8, 5 µM diclofenac for CYP2C9, 20 µM S-mephenytoin for CYP2C19, 5 µM bufuralol for CYP2D6, 2 µM midazolam for CYP3A4, were used as positive controls.

CYP3A = assay: HLM phenotyping assay with CYP3A inhibitor ketoconazole; assay type: in vitro ADME, human; details: 1 μM, HLM 0.5 mg/mL, NADPH, 90 min, with 1 µM ketoconazole
Experimental: as §2

[3] = set-up: method as in Gu et al., 2024; details: rats, 0-24 h; ref Gu et al., 2024; cited from earlier work

CCC1OC(=O)C(C)C(O)C(C)C(O)C(C)(O)CC(C)CN(C)C(C)C(O)C1(C)O (stereo not drawn) [Deg-AZM, Deglycosylated azithromycin]
Proportion in total related substances, Bile ([1]; rat bile 0-24 h, single gavage 25 mg/kg Deg-AZM, by peak area): 7.95% | Proportion in total related substances, Feces ([1]; rat feces 0-24 h, single gavage 25 mg/kg Deg-AZM, by peak area): 9.12% | Proportion in total related substances, Plasma ([1]; rat plasma 0.167-8 h after oral Deg-AZM, by AUC0-t of chromatographic peak area): 61.6% | Proportion in total related substances, Urine ([1]; rat urine 0-24 h, single gavage 25 mg/kg Deg-AZM, by peak area): 62.9% | Cumulative excretion fraction, urine [2]: 14.9% | Deg-AZM remaining (pooled HLM): 45.7% | Deg-AZM remaining (CYP3A): 93.4% | Amount excreted in original form from feces [3]: 1.81 % of the administered dose | Amount excreted in original form from urine [3]: 14.9 % of the administered dose
